Experiments:
CDK2 = molecular target: T1, CDK2 (Homo sapiens, UniProt P24941); assay: CDK protein degradation activity (Western blotting), CDK2; type: cell-based; settings: MDA-MB-231 cells, 16 hours, Western blot
T1 construct: endogenous in cells; host or cells: MDA-MB-231
How it was run: (§1)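 Degradation is judged from CDK2 and CDK9 band intensity relative to tubulin and DMSO-treated cells, after 16 h exposure of MDA-MB-231 cells to three compound concentrations (100 nM, 1 μM, 10 μM).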

CDK9 = molecular target: T2, CDK9 (Homo sapiens, UniProt P50750); assay: CDK protein degradation activity (Western blotting), CDK9; type: cell-based; settings: MDA-MB-231 cells, 16 hours, Western blot
T2 construct: endogenous in cells; host or cells: MDA-MB-231
T2 sequence (P50750 whole entry): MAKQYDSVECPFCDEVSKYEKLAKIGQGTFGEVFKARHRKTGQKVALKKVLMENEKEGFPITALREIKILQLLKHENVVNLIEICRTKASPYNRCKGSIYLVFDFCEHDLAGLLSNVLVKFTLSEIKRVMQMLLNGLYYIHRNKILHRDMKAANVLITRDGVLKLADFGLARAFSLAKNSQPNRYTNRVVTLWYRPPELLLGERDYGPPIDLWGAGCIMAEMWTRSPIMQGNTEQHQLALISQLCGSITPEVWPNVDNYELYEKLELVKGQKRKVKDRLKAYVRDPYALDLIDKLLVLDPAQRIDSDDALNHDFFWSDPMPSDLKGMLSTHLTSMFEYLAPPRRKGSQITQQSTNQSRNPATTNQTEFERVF
How it was run: as §1

Row | Enzyme degradation CDK2 (% remaining) @ 0.1 μM (CDK2) [%] | Enzyme degradation CDK2 (% remaining) @ 1 μM (CDK2) [%] | Enzyme degradation CDK2 (% remaining) @ 10 μM (CDK2) [%] | Enzyme degradation CDK9 (% remaining) @ 0.1 μM (CDK9) | Enzyme degradation CDK9 (% remaining) @ 1 μM (CDK9) | Enzyme degradation CDK9 (% remaining) @ 10 μM (CDK9) | SMILES
1 | 90 | 70 | 80 | 80% | 0% | 0% | Cc1cccc(C(=O)NC2CC(n3cnc4c(NCc5cccc(N6CCN(CC7CCN(C(=O)COc8ccc9c(c8)C(=O)N([C@H]8CCC(=O)NC8=O)C9=O)CC7)CC6)c5)ncnc43)C2)n1 (stereo partly drawn) [Compound 133, N-((1s,3s)-3-(6-((3-(4-((1-(2-((2-(2,6-dioxopiperidin-3-yl)-1,3-dioxoisoindolin-5-yl)oxy)acetyl)piperidin-4-yl)methyl)piperazin-1-yl)benzyl)amino)-9H-purin-9-yl)cyclobutyl)-6-methylpicolinamide]
2 | 60 | 50 | 50 | 0/0/0% | 0/0/0% | 0/0/0% | Cc1cccc(C(=O)NC2CC(n3cnc4c(NCc5cccc(N6CCN(CC7CCN(C(=O)CNc8cccc9c8C(=O)N([C@H]8CCC(=O)NC8=O)C9=O)CC7)CC6)c5)ncnc43)C2)n1 (stereo partly drawn) [Compound 134, N-((1s,3s)-3-(6-((3-(4-((1-((2-(2,6-dioxopiperidin-3-yl)-1,3-dioxoisoindolin-4-yl)glycyl)piperidin-4-yl)methyl)piperazin-1-yl)benzyl)amino)-9H-purin-9-yl)cyclobutyl)-6-methylpicolinamide]
3 | 70 | 60 | 40 | 0/0/0% | 0/0/0% | 0/0/0% | Cc1cccc(C(=O)NC2CC(n3cnc4c(NCc5cccc(N6CCN(CC7CCN(C(=O)CNc8ccc9c(c8)C(=O)N([C@H]8CCC(=O)NC8=O)C9=O)CC7)CC6)c5)ncnc43)C2)n1 (stereo partly drawn) [Compound 135, N-((1s,3s)-3-(6-((3-(4-((1-((2-(2,6-dioxopiperidin-3-yl)-1,3-dioxoisoindolin-5-yl)glycyl)piperidin-4-yl)methyl)piperazin-1-yl)benzyl)amino)-9H-purin-9-yl)cyclobutyl)-6-methylpicolinamide]
4 | 100 | 100 | 60 | 10% | 70% | 40% | Cc1cccc(C(=O)N[C@H]2C[C@@H](n3cnc4c(NCc5cccc(N6CCN(CC7CCN(c8cccc9c8C(=O)N([C@H]8CCC(=O)NC8=O)C9=O)CC7)CC6)c5)ncnc43)C2)n1 [Compound 136, N-((1s,3s)-3-(6-((3-(4-((1-(2-(2,6-dioxopiperidin-3-yl)-1,3-dioxoisoindolin-4-yl)piperidin-4-yl)methyl)piperazin-1-yl)benzyl)amino)-9H-purin-9-yl)cyclobutyl)-6-methylpicolinamide]
5 | 30 | 40 | 40 | 0/0/0% | 0/0/0% | 0/0/0% | Cc1cccc(C(=O)N[C@H]2C[C@@H](n3cnc4c(NCc5cccc(N6CCN(CC7CCN(c8ccc9c(c8)C(=O)N([C@H]8CCC(=O)NC8=O)C9=O)CC7)CC6)c5)ncnc43)C2)n1 [Compound 137, N-((1s,3s)-3-(6-((3-(4-((1-(2-(2,6-dioxopiperidin-3-yl)-1,3-dioxoisoindolin-5-yl)piperidin-4-yl)methyl)piperazin-1-yl)benzyl)amino)-9H-purin-9-yl)cyclobutyl)-6-methylpicolinamide]
6 | 80 | 90 | 80 | 80% | 90% | 70% | Cc1cccc(C(=O)NC2CC(n3cnc4c(NCCCN5CCN(C(=O)CNc6cccc7c6C(=O)N([C@@H]6CCC(=O)NC6=O)C7=O)CC5)ncnc43)C2)n1 (stereo partly drawn) [Compound 139, N-((1r,3r)-3-(6-((3-(4-((2-(2,6-dioxopiperidin-3-yl)-1,3-dioxoisoindolin-4-yl)glycyl)piperazin-1-yl)propyl)amino)-9H-purin-9-yl)cyclobutyl)-6-methylpicolinamide]
7 | 70 | 50 | 60 | 90% | 80% | 50% | Cc1cccc(C(=O)N[C@H]2C[C@H](n3cnc4c(NCCCN5CCN(C(=O)CNc6ccc7c(c6)C(=O)N([C@@H]6CCC(=O)NC6=O)C7=O)CC5)ncnc43)C2)n1 [Compound 141, N-((1r,3r)-3-(6-((3-(4-((2-(2,6-dioxopiperidin-3-yl)-1,3-dioxoisoindolin-5-yl)glycyl)piperazin-1-yl)propyl)amino)-9H-purin-9-yl)cyclobutyl)-6-methylpicolinamide]
8 | 80 | 70 | 50 | 70% | 0% | 0% | Cc1cccc(C(=O)NC2CC(n3cnc4c(NCCCN5CCN(CC6CCN(C(=O)COc7cccc8c7C(=O)N([C@@H]7CCC(=O)NC7=O)C8=O)CC6)CC5)ncnc43)C2)n1 (stereo partly drawn) [Compound 142, N-((1r,3r)-3-(6-((3-(4-((1-(2-((2-(2,6-dioxopiperidin-3-yl)-1,3-dioxoisoindolin-4-yl)oxy)acetyl)piperidin-4-yl)methyl)piperazin-1-yl)propyl)amino)-9H-purin-9-yl)cyclobutyl)-6-methylpicolinamide]
9 | 80 | 50 | 100 | 0/0/0% | 0/0/0% | 0/0/0% | Cc1cccc(C(=O)NC2CC(n3cnc4c(NCCCN5CCN(CC6CCN(C(=O)CNc7cccc8c7C(=O)N([C@@H]7CCC(=O)NC7=O)C8=O)CC6)CC5)ncnc43)C2)n1 (stereo partly drawn) [Compound 143, N-((1r,3r)-3-(6-((3-(4-((1-((2-(2,6-dioxopiperidin-3-yl)-1,3-dioxoisoindolin-4-yl)glycyl)piperidin-4-yl)methyl)piperazin-1-yl)propyl)amino)-9H-purin-9-yl)cyclobutyl)-6-methylpicolinamide]
10 | 100 | 70 | 70 | 80% | 10% | 0% | Cc1cccc(C(=O)NC2CC(n3cnc4c(NCCCN5CCN(CC6CCN(C(=O)COc7ccc8c(c7)C(=O)N([C@@H]7CCC(=O)NC7=O)C8=O)CC6)CC5)ncnc43)C2)n1 (stereo partly drawn) [Compound 144, N-((1r,3r)-3-(6-((3-(4-((1-(2-((2-(2,6-dioxopiperidin-3-yl)-1,3-dioxoisoindolin-5-yl)oxy)acetyl)piperidin-4-yl)methyl)piperazin-1-yl)propyl)amino)-9H-purin-9-yl)cyclobutyl)-6-methylpicolinamide]
11 | 30 | 50 | 50 | 0/0/0% | 0/0/0% | 0/0/0% | Cc1cccc(C(=O)NC2CC(n3cnc4c(NCCCN5CCN(CC6CCN(C(=O)CNc7ccc8c(c7)C(=O)N([C@@H]7CCC(=O)NC7=O)C8=O)CC6)CC5)ncnc43)C2)n1 (stereo partly drawn) [Compound 145, N-((1r,3r)-3-(6-((3-(4-((1-((2-(2,6-dioxopiperidin-3-yl)-1,3-dioxoisoindolin-5-yl)glycyl)piperidin-4-yl)methyl)piperazin-1-yl)propyl)amino)-9H-purin-9-yl)cyclobutyl)-6-methylpicolinamide]
12 | 40 | 50 | 60 | 10% | 0% | 0% | Cc1cccc(C(=O)NC2CC(n3cnc4c(NCc5ccc(N6CCN(C(=O)CNc7cccc8c7C(=O)N([C@H]7CCC(=O)NC7=O)C8=O)CC6)cc5)ncnc43)C2)n1 (stereo partly drawn) [Compound 148, N-((1s,3s)-3-(6-((4-(4-((2-(2,6-dioxopiperidin-3-yl)-1,3-dioxoisoindolin-4-yl)glycyl)piperazin-1-yl)benzyl)amino)-9H-purin-9-yl)cyclobutyl)-6-methylpicolinamide]
13 | 10 | 20 | 20 | 0/0/0% | 0/0/0% | 0/0/0% | Cc1cccc(C(=O)N[C@H]2C[C@@H](n3cnc4c(NCc5ccc(N6CCN(C(=O)CNc7ccc8c(c7)C(=O)N([C@H]7CCC(=O)NC7=O)C8=O)CC6)cc5)ncnc43)C2)n1 [Compound 149, N-((1s,3s)-3-(6-((4-(4-((2-(2,6-dioxopiperidin-3-yl)-1,3-dioxoisoindolin-5-yl)glycyl)piperazin-1-yl)benzyl)amino)-9H-purin-9-yl)cyclobutyl)-6-methylpicolinamide]
